The values below come from ChEMBL document CHEMBL1743341, “Cytochrome p450 enzymes mechanism based inhibitors: common sub-structures and reactivity” (Curr Drug Metab, 2005).

What all share (assay type): ADME
For one data set, the target named is T1, Cytochrome P450 2C11 (Rattus norvegicus, UniProt P08683).
T1 sequence (P08683 whole entry): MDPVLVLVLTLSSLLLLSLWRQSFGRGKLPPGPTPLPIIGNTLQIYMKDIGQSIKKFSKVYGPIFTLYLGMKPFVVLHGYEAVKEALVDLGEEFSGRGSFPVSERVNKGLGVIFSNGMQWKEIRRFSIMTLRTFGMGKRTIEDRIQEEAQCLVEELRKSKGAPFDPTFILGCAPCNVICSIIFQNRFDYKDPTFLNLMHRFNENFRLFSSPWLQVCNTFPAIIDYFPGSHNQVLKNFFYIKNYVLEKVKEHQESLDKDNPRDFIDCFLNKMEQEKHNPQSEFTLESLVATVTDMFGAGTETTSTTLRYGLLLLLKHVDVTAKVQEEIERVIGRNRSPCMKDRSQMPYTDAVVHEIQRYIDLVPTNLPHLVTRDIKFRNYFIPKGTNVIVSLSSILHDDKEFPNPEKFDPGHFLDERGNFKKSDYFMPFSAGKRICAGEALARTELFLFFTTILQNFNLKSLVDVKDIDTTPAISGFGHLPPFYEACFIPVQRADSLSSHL
Description: Mechanism based inhibition of rat cytochrome P450 CYP2C11 measured by 2-alpha and 16-alpha hydroxylation of testosterone.

Another data set has as its target T2, Cytochrome P450 1B1 (Homo sapiens, UniProt Q16678).
T2 sequence (Q16678 whole entry): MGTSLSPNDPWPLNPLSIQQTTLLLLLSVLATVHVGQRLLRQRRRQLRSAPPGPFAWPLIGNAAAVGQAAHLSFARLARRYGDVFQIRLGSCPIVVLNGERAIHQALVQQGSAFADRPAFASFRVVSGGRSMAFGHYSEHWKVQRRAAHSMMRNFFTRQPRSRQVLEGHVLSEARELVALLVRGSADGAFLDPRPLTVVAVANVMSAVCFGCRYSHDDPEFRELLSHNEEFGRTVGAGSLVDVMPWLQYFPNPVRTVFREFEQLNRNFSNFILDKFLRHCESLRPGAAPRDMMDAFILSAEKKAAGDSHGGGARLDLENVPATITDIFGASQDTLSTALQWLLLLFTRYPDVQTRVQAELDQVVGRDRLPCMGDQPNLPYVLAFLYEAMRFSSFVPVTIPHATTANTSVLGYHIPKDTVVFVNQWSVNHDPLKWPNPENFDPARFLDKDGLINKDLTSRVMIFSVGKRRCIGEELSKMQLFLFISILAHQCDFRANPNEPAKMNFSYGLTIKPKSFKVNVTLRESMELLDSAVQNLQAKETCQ
Nature of the data set: Mechanism based inhibition of human cytochrome P450 1B1 measured by 7-ethoxyresorufin O-deethylation (EROD).

The target of another data set is T3, Cytochrome P450 1A1 (Homo sapiens, UniProt P04798).
T3 sequence (P04798 whole entry): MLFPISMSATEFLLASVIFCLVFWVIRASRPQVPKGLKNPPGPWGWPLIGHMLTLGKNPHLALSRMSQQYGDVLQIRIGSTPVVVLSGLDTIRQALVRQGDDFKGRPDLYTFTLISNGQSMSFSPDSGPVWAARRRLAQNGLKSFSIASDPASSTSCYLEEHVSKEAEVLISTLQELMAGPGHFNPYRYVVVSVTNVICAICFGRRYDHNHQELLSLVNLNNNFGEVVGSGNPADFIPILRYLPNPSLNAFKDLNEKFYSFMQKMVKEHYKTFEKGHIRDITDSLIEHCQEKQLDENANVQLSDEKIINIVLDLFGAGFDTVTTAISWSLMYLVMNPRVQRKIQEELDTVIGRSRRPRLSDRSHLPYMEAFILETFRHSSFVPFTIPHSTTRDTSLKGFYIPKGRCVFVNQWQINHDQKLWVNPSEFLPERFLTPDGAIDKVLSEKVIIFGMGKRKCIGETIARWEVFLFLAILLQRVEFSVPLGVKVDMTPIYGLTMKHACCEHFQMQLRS
Description: Mechanism based inhibition of human cytochrome P450 1A1 measured by 7-ethoxyresorufin O-deethylation (EROD).

The target of the next data set is T4, Cytochrome P450 1A2 (Homo sapiens, UniProt P05177).
T4 sequence (P05177 whole entry): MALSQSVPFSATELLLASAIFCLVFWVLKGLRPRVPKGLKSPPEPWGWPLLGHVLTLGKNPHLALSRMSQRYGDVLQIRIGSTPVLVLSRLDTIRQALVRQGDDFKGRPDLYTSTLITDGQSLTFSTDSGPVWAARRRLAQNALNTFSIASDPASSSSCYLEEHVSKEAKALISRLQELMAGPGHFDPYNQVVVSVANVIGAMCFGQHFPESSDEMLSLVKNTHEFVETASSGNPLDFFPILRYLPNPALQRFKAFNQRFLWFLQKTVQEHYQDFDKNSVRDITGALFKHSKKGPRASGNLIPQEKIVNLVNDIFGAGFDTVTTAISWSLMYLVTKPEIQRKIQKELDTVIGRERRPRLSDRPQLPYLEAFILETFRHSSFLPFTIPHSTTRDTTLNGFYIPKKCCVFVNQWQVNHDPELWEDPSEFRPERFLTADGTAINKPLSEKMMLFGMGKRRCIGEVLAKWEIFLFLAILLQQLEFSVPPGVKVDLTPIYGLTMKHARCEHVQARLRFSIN
Nature of the data set: (§1) Mechanism based inhibition of human cytochrome P450 1A2 measured by phenacetin O-deethylation (POD).

In a further data set the target is T5, CYP1A2 (Homo sapiens, UniProt P05177).
T5 sequence (P05177 whole entry): T4 sequence (P05177 whole entry)
The description is as §1. The following applies: human, probe phenacetin (O-deethylation, POD).

As for `CNCCC(Oc1ccc(C(F)(F)F)cc1)c1ccccc1` (stereo not given) [FLUOXETINE], at Cytochrome P450 2C11, the mechanism based inhibition entry is given as “Cytochrome P450 mechanistic inhibitor: PMID 14555335”.

In the case of `C#Cc1cc2ccc3cccc4ccc(c1)c2c34`, the mechanism based inhibition result at Cytochrome P450 1B1 and at Cytochrome P450 1A1 was “Cytochrome P450 mechanistic inhibitor: PMID 9760279” in each case.

At Cytochrome P450 1A2, `CC(c1cc2ccccc2s1)N(O)C(N)=O` (racemic) [ZILEUTON] registered a Ki of 117 µM. The kinact at CYP1A2 is 0.000583 s⁻¹.

`C[C@H](c1cc2ccccc2s1)N(O)C(N)=O` displayed a Ki on Cytochrome P450 1A2 of 66 µM. On CYP1A2, the kinact was 0.0002 s⁻¹.

Regarding `C[C@@H](c1cc2ccccc2s1)N(O)C(N)=O`, at Cytochrome P450 1A2, the Ki was determined as 98.2 µM. For the same compound, the kinact on CYP1A2 is 0.000617 s⁻¹.

`CNCCC(Oc1ccccc1OC)c1ccccc1` (stereo not given) [NISOXETINE]: the mechanism based inhibition entry on Cytochrome P450 2C11 is recorded as “Cytochrome P450 mechanistic inhibitor: PMID 14555335”.

The kinact is the rate constant of inactivation at saturating inhibitor.
